# From article PMC9887005, “Regioselective protein oxidative cleavage enabled by enzyme-like recognition of an inorganic metal oxo cluster ligand” (Nature Communications, 2023)
# Biological target: T1, hen egg white lysozyme (HEWL) (Gallus gallus, UniProt P00698)
# T1 construct: gene LYZ
# Assay: tryptophan fluorescence quenching
# Format: binding
# Conditions: 10 mM tris-HCl pH 7.5, room temperature; 10 µM HEWL, excitation 295 nm; double-log; fitted together with number of bound quencher molecules n
# Text: tryptophan fluorescence quenching on hen egg white lysozyme (HEWL)
# T1 sequence (P00698 19-147): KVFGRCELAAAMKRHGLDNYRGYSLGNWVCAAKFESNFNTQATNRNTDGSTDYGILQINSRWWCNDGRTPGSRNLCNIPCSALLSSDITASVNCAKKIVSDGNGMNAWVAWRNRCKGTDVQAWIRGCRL
row,Ka [M⁻¹],Substance
1,6.76e+08,Cu^IIWD
2,6.91e+08,α2WD
